Earlier results in US20220151952A1 (priority 2019, published 2022).

Substance: cannabidiol [CBD]
- solubility in organic solvents (organic solvents, such as oil): soluble
- solubility in water (water): insoluble
